# Laboratory results: patent US20240024273A1, “TOPICAL ADMINISTRATION OF 2-(DIETHYLAMINO)ETHYL 2-(4-ISOBUTYLPHENYL)PROPRIONATE FOR TREATMENT OF DISEASES” (TECHFIELDS PHARMA CO., LTD., priority 2020, published 2024)
# Where “and” joins values, the source holds several entries; their conditions need not be identical. Identical values can stand only once.
# System: healthy male and female volunteers
# Assay: Phase 1 clinical study: safety (adverse events, laboratory, vital signs, ECG)
# Assay type: in vivo, human
# Conditions: for Subjects with at least one TEAE: N = 8
# Excerpt: Safety assessments included monitoring of adverse events (AEs), vital signs (blood pressure, pulse rate, respiratory rate and oral temperature), clinical laboratory findings, resting 12-lead electrocardiogram (ECG) results, skin irritation assessments and physical examination findings.
# Safety endpoints consist of all AEs, clinical laboratory test results, ECG, physical examination and vital sign assessments and skin irritation assessments.
# Safety summaries are provided for all subjects in the safety population. Data from subjects in each cohort who received placebo treatment were pooled. AE data, clinical laboratory test results, ECG, skin irritation and vital signs data are presented descriptively using summary tables and listings. Change from baseline in vital signs, ECG and clinical laboratory results are presented descriptively using summary tables and listings. Physical examination findings are listed by subject.
# Samples for clinical laboratory safety tests (chemistry, hematology, urinalysis) were obtained at the screening visit, Day −1, Day 4, Day 13 and prior to discharge from the study on Day 17 or at early termination. Any clinical laboratory findings considered to be clinically significant were recorded as AEs.
# Systolic and diastolic blood pressure (mmHg) and pulse rate (beats per minute), respiratory rate (breaths per minute) and oral temperature (° C.) were measured after at least 5 minutes at rest in the seated position at the screening visit, at admission on Day −1, Day 5 and Day 13, and prior to and 1 hour following each dose administration.
# A physical examination was performed at the screening visit and on Day 13, or at early termination, and included assessment of the following body systems: general appearance, dermatological, head, eyes, ears, nose and throat, neck, lymph nodes, lungs, heart, abdomen, neurological and musculoskeletal.
# A resting 12-lead ECG was recorded after at least 5 minutes of rest at the screening visit and on Day 13, or at early termination. The ECG parameters recorded include ventricular rate (bpm), PR interval (msec), QRS duration (msec), QT interval (msec), and QTc interval (msec). QTc interval was calculated at the clinic using a formula internal to the ECG equipment (Mortara).
# [1] = N = 8 each, dose by column: c1 17.5, c2 35, c3 70, c4 140, c5 280 mg topical, c6 70 mg spray
smiles,measurement,setting,value
CCN(CC)CCOC(=O)C(C)c1ccc(CC(C)C)cc1 (centres unmarked) [2-(diethylamino)ethyl 2-(4-isobutylphenyl)propionate],Subjects with at least one TEAE,17.5 mg topical,1 (12.5%) n (%) and 1 (12.5) n (%)
same,"Headache, subjects",35 mg topical,2 (25.0%)
same,Subjects with at least one TEAE,35 mg topical,3 (37.5%) n (%) and 3 (37.5) n (%)
same,Subjects with at least one TEAE,70 mg spray,2 (25.0%) n (%) and 2 (25.0) n (%)
same,Subjects with at least one TEAE,70 mg topical,1 (12.5%) n (%) and 1 (12.5) n (%)
same,"Headache, subjects",140 mg topical,1 (12.5%)
same,Subjects with at least one TEAE,140 mg topical,1 (12.5%) n (%) and 1 (12.5) n (%)
same,Subjects with at least one TEAE,280 mg topical,1 (12.5%) n (%) and 1 (12.5) n (%)
same,safety and tolerability,"17.5-280 mg topical and 70 mg spray, single and multiple doses",safe and well-tolerated
same,Subjects who discontinued due to an AE,[1],0
same,Subjects with SAEs,[1],0
same,TEAE: Dizziness,[1],0 n (%)
same,TEAE: Vomiting,[1],0 n (%)
same,intensity of AEs,all dose groups,mild or moderate in intensity
same,"aspartate aminotransferase (ast) increased, subjects",each of 70 mg topical and 70 mg spray,1 (12.5%)
same,"alanine aminotransferase (ALT) increased, subjects","each of 70 mg, 280 mg topical and 70 mg spray",1 (12.5%)
same,ECG parameters,"human, in vivo",no clinically significant ECG parameter values
same,deaths,"human, in vivo",No subjects died
same,laboratory findings vs dose,"human, in vivo",no apparent trends or dose relationship
same,vital signs,"human, in vivo",no clinically significant vital sign values
